Measured values taken from PubChem BioAssay (NCI).
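Exposure lasted 48 hours, with cells grown in 96-well plates and compounds tested at five concentrations. TGI: total growth inhibition.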

How the values were obtained:
Assay in all cases: inhibition of tumour cell growth, NCI panel, 48 h
HS 578T breast = tested on: HS 578T breast
SNB-75 CNS = tested on: SNB-75 CNS
NCI-H522 lung = tested on: NCI-H522 lung
HOP-62 NSCLC = tested on: HOP-62 NSCLC
A549 NSCLC = tested on: A549 NSCLC
HT29 colon = tested on: HT29 colon
K-562 leukemia = tested on: K-562 leukemia
COLO 205 colon = tested on: COLO 205 colon
SF-539 CNS = tested on: SF-539 CNS
TK-10 renal = tested on: TK-10 renal
HOP-92 NSCLC = tested on: HOP-92 NSCLC
UACC-62 melanoma = tested on: UACC-62 melanoma
HCT-15 colon = tested on: HCT-15 colon
MDA-MB-435 = tested on: MDA-MB-435
MDA-N = tested on: MDA-N
BT-549 breast = tested on: BT-549 breast
T-47D breast = tested on: T-47D breast
SK-MEL-5 melanoma = tested on: SK-MEL-5 melanoma
MCF7 breast = tested on: MCF7 breast
KM12 colon = tested on: KM12 colon
MOLT-4 leukemia = tested on: MOLT-4 leukemia
OVCAR-3 ovarian = tested on: OVCAR-3 ovarian
PC-3 prostate = tested on: PC-3 prostate
ACHN renal = tested on: ACHN renal
NCI/ADR-RES ovarian = tested on: NCI/ADR-RES ovarian
CCRF-CEM leukemia = tested on: CCRF-CEM leukemia
A498 renal = tested on: A498 renal
SK-OV-3 ovarian = tested on: SK-OV-3 ovarian
SR leukemia = tested on: SR leukemia
OVCAR-8 ovarian = tested on: OVCAR-8 ovarian
SNB-19 CNS = tested on: SNB-19 CNS
NCI-H226 lung = tested on: NCI-H226 lung
SK-MEL-2 melanoma = tested on: SK-MEL-2 melanoma
EKVX NSCLC = tested on: EKVX NSCLC
UO-31 renal = tested on: UO-31 renal
SF-268 CNS = tested on: SF-268 CNS
HCT-116 colon = tested on: HCT-116 colon
IGROV1 ovarian = tested on: IGROV1 ovarian
MDA-MB-231 breast = tested on: MDA-MB-231 breast
RXF 393 renal = tested on: RXF 393 renal
786-0 renal = tested on: 786-0 renal
CAKI-1 renal = tested on: CAKI-1 renal
U251 CNS = tested on: U251 CNS
M14 melanoma = tested on: M14 melanoma
NCI-H23 lung = tested on: NCI-H23 lung
MALME-3M melanoma = tested on: MALME-3M melanoma
NCI-H460 lung = tested on: NCI-H460 lung
OVCAR-5 ovarian = tested on: OVCAR-5 ovarian
DU-145 prostate = tested on: DU-145 prostate
LOX IMVI melanoma = tested on: LOX IMVI melanoma
RPMI-8226 leukemia = tested on: RPMI-8226 leukemia
SF-295 CNS = tested on: SF-295 CNS
UACC-257 melanoma = tested on: UACC-257 melanoma
SK-MEL-28 melanoma = tested on: SK-MEL-28 melanoma
SW-620 colon = tested on: SW-620 colon
HL-60(TB) leukemia = tested on: HL-60(TB) leukemia
HCC-2998 colon = tested on: HCC-2998 colon
SN12C renal = tested on: SN12C renal
OVCAR-4 ovarian = tested on: OVCAR-4 ovarian
RXF-631 renal = tested on: RXF-631 renal
M19-MEL melanoma = tested on: M19-MEL melanoma
DLD-1 colon = tested on: DLD-1 colon
DMS 114 small cell lung = tested on: DMS 114 small cell lung
DMS 273 small cell lung = tested on: DMS 273 small cell lung
XF 498 CNS = tested on: XF 498 CNS
SNB-78 CNS = tested on: SNB-78 CNS
LXFL 529 NSCLC = tested on: LXFL 529 NSCLC

Measured: TGI

CC1CCN(CC(=O)N2c3ccccc3Sc3cc4ccccc4cc32)CC1
> 100 µM: HS 578T breast | SNB-75 CNS | NCI-H522 lung | HOP-62 NSCLC | A549 NSCLC | HT29 colon | K-562 leukemia | COLO 205 colon | SF-539 CNS | TK-10 renal | HOP-92 NSCLC | UACC-62 melanoma | HCT-15 colon | MDA-MB-435 | MDA-N | BT-549 breast | T-47D breast | SK-MEL-5 melanoma | MCF7 breast | KM12 colon | MOLT-4 leukemia | OVCAR-3 ovarian | PC-3 prostate | ACHN renal | NCI/ADR-RES ovarian | CCRF-CEM leukemia | A498 renal | SK-OV-3 ovarian | SR leukemia | OVCAR-8 ovarian | SNB-19 CNS | NCI-H226 lung | SK-MEL-2 melanoma | EKVX NSCLC | UO-31 renal | SF-268 CNS | HCT-116 colon | IGROV1 ovarian | MDA-MB-231 breast | RXF 393 renal | 786-0 renal | CAKI-1 renal | U251 CNS | M14 melanoma | NCI-H23 lung | MALME-3M melanoma | NCI-H460 lung | OVCAR-5 ovarian | DU-145 prostate | LOX IMVI melanoma | RPMI-8226 leukemia | SF-295 CNS | UACC-257 melanoma | SK-MEL-28 melanoma | SW-620 colon | HL-60(TB) leukemia | HCC-2998 colon | SN12C renal | OVCAR-4 ovarian

CCN(CC)C1CC(n2cc(C)c(=O)[nH]c2=O)OC1CO (stereo not drawn)
> 100 µM: SNB-75 CNS | NCI-H522 lung | HOP-62 NSCLC | RXF-631 renal | K-562 leukemia | COLO 205 colon | SF-539 CNS | M19-MEL melanoma | DLD-1 colon | DMS 114 small cell lung | HOP-92 NSCLC | UACC-62 melanoma | DMS 273 small cell lung | MOLT-4 leukemia | XF 498 CNS | CCRF-CEM leukemia | A498 renal | SNB-78 CNS | SK-OV-3 ovarian | SR leukemia | NCI-H226 lung | SK-MEL-2 melanoma | UO-31 renal | SF-268 CNS | HCT-116 colon | IGROV1 ovarian | 786-0 renal | CAKI-1 renal | M14 melanoma | NCI-H23 lung | MALME-3M melanoma | NCI-H460 lung | RPMI-8226 leukemia | SK-MEL-28 melanoma | LXFL 529 NSCLC | HL-60(TB) leukemia | HCC-2998 colon | SN12C renal | OVCAR-4 ovarian
